# Where a name gives a salt, the structure may show the parent alone. Read-outs that look alike come from different tables or passages of the source.
# Tests used:
# Male SD rats = test: Hypnotic efficacy: loss of righting reflex (LORR) in rats; type: in vivo; conditions: for ED50: Rattus norvegicus, tail vein injection over 10 s, sequential method; for induce sleep in rats: time to induce sleep, dose twice the ED50
# Experimental: The sequential method was used to determine the ED50 (median effective dose) for the loss of righting reflex (LORR) by the compounds of the present disclosure in rats: Male SD rats, weighing 200-300 grams, were used. Each compound was dissolved in normal saline and administered via tail vein injection at an initial dose at a constant injection rate over 10 s (one rat per dose). […] This process was repeated, and the results were recorded in the AOT425 Statpm software until the software could calculate the ED50, at which point the experiment was terminated. The hypnotic efficacy of the compounds of the present disclosure was evaluated using ED50 with lower ED50 values indicating stronger efficacy.
# Comparison of onset time and duration: Male SD rats, weighing 200-300 grams, were used. Each compound was dissolved in normal saline and administered via tail vein injection at a constant injection rate over 10 s, with 10 rats per group. […] The onset time and duration were recorded.
# The onset time refers to the period from the completion of injection to when the rat is placed in a supine position, with the criterion for loss of righting reflex defined as the rat's inability to spontaneously revert to a prone position using its forelimbs and maintained for ≥10 s, which serves as an indicator of compound efficacy; the duration refers to the sustained period during which the rat remains in a state of losing righting reflex. The spontaneous recovery of the righting reflex in the rat is considered the cessation of the efficacy.
# α2A adrenoceptor = target: T1, α2A adrenoceptor (Homo sapiens, UniProt P08913); test: Agonist screening mode cAMP assay, 293-α2A cells; type: cell-based; conditions: for agonistic activity on the α2A receptor / agonistic activity α1A/2A: in words, compared with dexmedetomidine hydrochloride; for Function α1A/2A: ratio of α1A to α2A EC50
# T1 construct: host or cells: 293
# T1 sequence (P08913 1-465): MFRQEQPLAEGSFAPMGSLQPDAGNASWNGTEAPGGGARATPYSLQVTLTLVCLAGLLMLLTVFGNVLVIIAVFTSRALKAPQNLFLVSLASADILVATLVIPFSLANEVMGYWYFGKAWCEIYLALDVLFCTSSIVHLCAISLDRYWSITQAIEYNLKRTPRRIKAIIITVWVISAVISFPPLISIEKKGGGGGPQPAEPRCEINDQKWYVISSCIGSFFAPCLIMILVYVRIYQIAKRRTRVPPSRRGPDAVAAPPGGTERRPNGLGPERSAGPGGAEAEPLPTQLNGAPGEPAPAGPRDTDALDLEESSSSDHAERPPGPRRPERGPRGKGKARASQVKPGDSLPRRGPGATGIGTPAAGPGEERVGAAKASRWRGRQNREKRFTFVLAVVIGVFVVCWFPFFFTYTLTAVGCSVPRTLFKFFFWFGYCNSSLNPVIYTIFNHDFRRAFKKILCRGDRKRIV
# Experimental: The cells were centrifuged at 1000 rpm for 5 min, and the supernatant was discarded. 3 mL of PBS was added, and the mixture was gently pipetted to be mixed well. The cells were centrifuged again at 1000 rpm for 5 min, and the supernatant was discarded. The cells were resuspended in the 1× Stimulation buffer and counted using a Countstar cell counter, and the cell density was adjusted to 4 × 10^5 cells/mL for later use. • (4) Cell addition: The cell suspension was added to assay plates at 5 µL/well (i.e., about 2000 cells/well). • (5) Compound addition: The compound diluted with the Stimulation buffer was added to the assay plates described above at 4 µL/well. • (6) Reaction and incubation: After gentle shaking, the assay plates were incubated at 37 °C for 20 min. • (7) Agonist Forskolin addition: A 10× adenylate cyclase agonist (Forskolin with a final concentration of 1 µM) solution was added at 1 µL/well. • (8) Reaction and incubation: After gentle shaking, the assay plates were incubated at 37 °C for 45 min. • (9) Detection reagent addition: cAMP-cryptate and Anti-cAMP-d2 were separately diluted according to a ratio of 1:20 with Lysis & detection buffer in the Cisbio cAMP-Gi detection kit, and the diluted cAMP-cryptate and Anti-cAMP-d2 described above were separately added to the assay plate at 5 µL/well. After shaking, the assay plates were left to stand at room temperature for 60 min. • (10) Experimental readings: The plate was read on Envision, readings from the 665 nm and 615 nm channels were taken, and the ratio of 665 nm/615 nm readings was calculated.
# [1] = loss of righting reflex, male SD rats
# [2] = in words, compared with dexmedetomidine hydrochloride, rats
# [3] = loss of righting reflex, male SD rats, tail vein injection, dose twice the ED50, 10 rats per group
# [4] = EC50, cAMP-Gi, 293-α2A cells, Forskolin 1 µM, read-out: Function α2A
Compound,ED50 (Male SD rats; [1]) [mg/kg],Duration (Male SD rats; [2]),hypnotic onset time (Male SD rats; [2]),Duration (Male SD rats; [3]) [S],Onset time (Male SD rats; [3]) [S],induce sleep in rats (Male SD rats; rats) [min],EC50 (α2A adrenoceptor) [nM],agonistic activity on the α2A receptor (α2A adrenoceptor),agonistic activity α1A/2A (α2A adrenoceptor),Function α1A/2A (α2A adrenoceptor),EC50 (α2A adrenoceptor; [4]) [nM]
"C[C@H](c1c[nH]cn1)c1cccc2c1CCC2 [Compound 31-b, (S)-4-[1-(2,3-dihydro-1H-inden-4-yl)ethyl]-1H-imidazole]",0.0268,significantly shorter,comparable to or slightly longer,1147.78±656.35,100.44±49.16,≤ 5,4.46,comparable,comparable,1.8,
"Cc1cccc([C@H](C)c2cnc[nH]2)c1C [Dexmedetomidine hydrochloride, reference compound]",0.01,,,3275.10±796.79,77.80±28.56,,,,,,
"CC(c1c[nH]cn1)c1cccc2c1OCC2 (stereo not shown) [Compound 10, 4-[1-(2,3-Dihydrobenzofuran-7-yl)ethyl]-1H-imidazole]",0.0088,significantly shorter,comparable to or slightly longer,508.10±572.65,219.90±93.88,≤ 5,4.63,comparable,comparable,5.2,
"c1cc2c(c(Cc3c[nH]cn3)c1)SCCC2 [Compound 1, 4-[1-(Thiochroman-8-yl)methyl]-1H-imidazole]",,,,,,,,comparable,,2.5,1.28
"CC(c1c[nH]cn1)c1cccc2c1SCCC2 (stereo not shown) [Compound 2, 4-(1-[Thiochroman-8-yl)ethyl]-1H-imidazole]",,,,,,,,superior,comparable,10.1,0.53
"CC(c1c[nH]cn1)c1cccc2c1CCCC2 (stereo not shown) [Compound 4, 4-(1-(5,6,7,8-Tetrahydronaphthalen-1-yl)ethyl)-1H-imidazole]",,,,,,,3.57,comparable,comparable,7.0,
"CC(c1c[nH]cn1)c1cccc2c1C=CC2(C)C (stereo not shown) [Compound 17, 4-[1-(1,1-Dimethyl-1H-inden-4-yl)ethyl]-1H-imidazole]",0.276,significantly shorter,comparable to or slightly longer,1602.50±681.51,101.80±154.86,≤ 5,32,,comparable,3.2,
"CC(c1c[nH]cn1)c1cccc2c1CC2 (stereo not shown) [Compound 3, 4-(1-(Bicyclo[4.2.0]octa-1(6),2,4-trien-2-yl)ethyl)-1H-imidazole]",,,,,,,3.12,comparable,superior,18.3,
"CC(c1c[nH]cn1)c1cccc2c1C=CC2 (stereo not shown) [Compound 8, 4-[1-(1H-Inden-4-yl)ethyl]-1H-imidazole]",0.0213,significantly shorter,comparable to or slightly longer,635.80±697.73,161.70±101.69,≤ 5,0.91,superior,superior,23.9,
"C[C@H](c1c[nH]cn1)c1cc(F)cc2c1C=CC2 [Compound 11-b, 4-[(1S)-1-(6-fluoro-1H-inden-4-yl)ethyl]-1H-imidazole]",0.0256,significantly shorter,significantly shorter,666.00±376.66,45.20±7.38,,9.18,comparable,comparable,4.0,
"C[C@H](c1c[nH]cn1)c1cc(F)cc2c1C(=O)CC2 [Compound 38-b, (S)-7-(1-(1H-imidazol-4-yl)ethyl)-5-fluoro-2,3-dihydro-1H-inden-1-one]",0.032,significantly shorter,comparable to or slightly longer,228.22±158.93,102.44±52.34,≤ 5,,,,0.7,13.2
"CC1Cc2cccc(C(C)c3c[nH]cn3)c2O1 (stereo not shown) [Compound 32, 4-[1-(2-Methyl-2,3-dihydrobenzofuran-7-yl)ethyl]-1H-imidazole]",,,,,,,353,,,0.0,

# — patent EP4729516A1, “S[…] DERIVATIVE, INTERMEDIATE, PREPARATION METHOD THEREFOR AND USE THEREOF” (Jiangsu NHWA Pharmaceutical Co., Ltd, priority 2023, dated 2024)
